Test results reported in ChEMBL document CHEMBL4359874, “Synthesis of novel tellurides bearing benzensulfonamide moiety as carbonic anhydrase inhibitors with antitumor activity” (Eur J Med Chem, 2019).
Activity calls are given as the source filed them. The rule behind the calls is not given here.

Columns and labels:
[1] = molecular target: Carbonic anhydrase 9 (Homo sapiens, UniProt Q16790); experiment: Inhibition of recombinant human carbonic anhydrase 9 preincubated for 15 mins by phenol red dye based stopped flow CO2 hydration assay
[2] = test system: MDA-MB-231; experiment: Cytotoxicity against human MDA-MB-231 cells assessed as reduction in cell viability at 30 uM after 48 hrs under hypoxia condition by MTT assay relative to control; assay type: functional
[3] = test system: MDA-MB-231; experiment: Cytotoxicity against human MDA-MB-231 cells assessed as reduction in cell viability at 3 uM after 48 hrs under normoxia condition by MTT assay relative to control; assay type: functional
[4] = test system: MDA-MB-231; experiment: Cytotoxicity against human MDA-MB-231 cells assessed as reduction in cell viability at 10 uM after 48 hrs under normoxia condition by MTT assay; assay type: functional, cell-based
[5] = test system: MDA-MB-231; experiment: Cytotoxicity against human MDA-MB-231 cells assessed as reduction in cell viability at 3 uM after 48 hrs under hypoxia condition by MTT assay relative to control; assay type: functional
[6] = test system: MDA-MB-231; experiment: Cytotoxicity against human MDA-MB-231 cells assessed as reduction in cell viability at 3 to 10 uM after 48 hrs under normoxia condition by MTT assay; assay type: functional, cell-based

Row | Compound | Ki [1] | other results
1 | NS(=O)(=O)c1ccc(OCC(O)C[Te]CC(O)COc2ccc(S(N)(=O)=O)cc2)cc1 (centres undefined) | 809 nM | 
2 | Cc1ccccc1[Te]CC(O)COc1ccc(S(N)(=O)=O)cc1 (centres undefined) | 9.5 nM | Activity [2]: >50%; Activity [3]: >50%; Activity [4]: Active; Activity [5]: 32%
3 | NS(=O)(=O)c1ccc(OCC(O)C[Te]c2ccccc2)cc1 (centres undefined) | 14.8 nM | 
4 | Cc1ccc([Te]CC(O)COc2ccc(S(N)(=O)=O)cc2)cc1 (centres undefined) | 118 nM | 
5 | CC[Te]CC(O)COc1ccc(S(N)(=O)=O)cc1 (centres undefined) | 40.7 nM | 
6 | NS(=O)(=O)c1ccc(OCC(O)C[Te]c2ccc3ccccc3c2)cc1 (centres undefined) | 6.4 nM | Activity [2]: 90%; Activity [6]: Active
7 | COc1ccc([Te]CC(O)COc2ccc(S(N)(=O)=O)cc2)cc1 (centres undefined) | 7.8 nM | 
8 | CCCC[Te]CC(O)COc1ccc(S(N)(=O)=O)cc1 (centres undefined) | 333 nM | 
